The source of these data is patent US20240209027A1, “PEPTIDE AND PEPTIDE-CONTAINING COMPOSITION” (PeptiAID Inc.,, priority 2021, published 2024).

Like-named read-outs stand apart in the source and are kept apart here. Starred links: 1 amine or outer side, 2 acyl side, 3 side chain; linkers in the order of their positions; H or OH if unused. Positions of bridges follow the written chain, without caps; N, C: chain ends. Non-standard residues stand in square brackets, D forms with d. Residues, ends and D or L forms follow the SMILES beside them. Chains are numbered I, II in the order given. *: point of attachment. X5 = O=C(O)CCCCCCCCCCCCC(=O)N[C@@H](CCC(=O)N[C@@H](CCCCN*)C(=O)O)C(=O)O; X4 = O=C(O)CCCCCCCCCCC(=O)N[C@@H](CCC(=O)N[C@@H](CCCCN*)C(=O)O)C(=O)O; Ala(piperidin-4-yl) = O=C([C@H](CC1CCN([*:3])CC1)N[*:1])[*:2]; Phe(4-COOH) = N[C@@H](Cc1ccc(C(=O)O)cc1)C(=O)O; X3 = O=C(O)CN1CCC(N[*:1])(C(=O)[*:2])CC1; Phe(4-F) = N[C@@H](Cc1ccc(F)cc1)C(=O)O; C12 diacid = O=C(O)CCCCCCCCCCC(=O)*; NMeF = CN[C@@H](Cc1ccccc1)C(=O)O; X1 = C[C@@H](Cc1ccc(O)cc1)C(=O)*; NMeE = CN[C@@H](CCC(=O)O)C(=O)O; dNMeE = CN[C@H](CCC(=O)O)C(=O)O; Cha = N[C@@H](CC1CCCCC1)C(=O)O; Cit = NC(=O)NCCC[C@H](N)C(=O)O; dNMeD = CN[C@H](CC(=O)O)C(=O)O; NMeNle = CCCC[C@H](NC)C(=O)O; hCys = N[C@@H](CCS)C(=O)O; X2 = O=C(C[*:1])[*:2]; Aib = CC(C)(N)C(=O)O

Data set [1] concerns SARS-CoV-2 (JPN/TY/WK-521 strain). Format: cell-based. The arrangement: key: the case where the peptide was found to have anti-SARS-CoV-2 activity when added at 50 nM was designated as “2”; the case where no activity was found upon the addition at 50 nM but the activity was found at 1 μM was designated as “1”. As to conditions: peptide added at 50 nM or 1 μM.
The test system of data set [2] is SARS-CoV2 (USA WA1/2020 strain). Conditions: 72 h.
Data set [3] can be described thus: in vitro. As to conditions: African green monkey.
In data set [4] the test system is SARS-CoV-2 Wuhan strain.
Data set [5] has as its system SARS-CoV-2 Delta strain.

What is called IC50 is the midpoint of a concentration-inhibition curve. Regarding `CCCC[C@H]1C(=O)NC(C)(C)C(=O)N[C@@H](CC2CCCCC2)C(=O)N[C@@H](Cc2ccc(F)cc2)C(=O)N[C@H](CC(=O)O)C(=O)N[C@@H](Cc2ccc(O)cc2)C(=O)N[C@@H](Cc2ccc(O)cc2)C(=O)N[C@@H](Cc2ccc(C(=O)O)cc2)C(=O)N[C@H](CCCNC(=N)N)C(=O)N[C@@H](CC2CCCCC2)C(=O)N[C@H](C(N)=O)CSCC(=O)N(C)[C@@H](CCC(=O)O)C(=O)N1C` [Peptide 5555_p003] ({CH2CO}-[NMeE][NMeNle][Aib][Cha][Phe(4-F)][dD]YY[Phe(4-COOH)][dR][Cha]C-NH2; thioether N-12), the Anti-SARS-CoV-2 activity in data set [1] amounted to 2. The same compound registered a half-maximal inhibitory concentration (IC50) in data set [2] of 4.5 nM. Moreover, the CC50 at 72 h in data set [3] is > 100000 nM. On to `CCCC[C@H]1C(=O)NC(C)(C)C(=O)N[C@@H](CC2CCCCC2)C(=O)N[C@@H](Cc2ccc(F)cc2)C(=O)N(C)[C@@H](CCC(=O)O)C(=O)N[C@@H](Cc2ccc(O)cc2)C(=O)N[C@@H](Cc2ccc(O)cc2)C(=O)N[C@@H](Cc2ccc(C(=O)O)cc2)C(=O)N[C@H](CCCNC(=N)N)C(=O)N[C@@H](CC2CCCCC2)C(=O)N[C@H](C(N)=O)CSCC(=O)N(C)[C@@H](CCC(=O)O)C(=O)N1C` [Peptide 5555_p005] ({CH2CO}-[NMeE][NMeNle][Aib][Cha][Phe(4-F)][NMeE]YY[Phe(4-COOH)][dR][Cha]C-NH2; thioether N-12), for which the IC50 in data set [2] is 5 nM. Besides, in data set [3], the CC50 at 72 h is > 100000 nM. In turn, `CCCC[C@H]1C(=O)NC(C)(C)C(=O)N[C@@H](CC2CCCCC2)C(=O)N[C@@H](Cc2ccc(F)cc2)C(=O)N[C@H](CC(=O)O)C(=O)N[C@@H](Cc2ccc(O)cc2)C(=O)N[C@@H](Cc2ccc(O)cc2)C(=O)N[C@@H](Cc2ccc(C(=O)O)cc2)C(=O)N[C@@H](CC2CCNCC2)C(=O)N[C@@H](CC2CCCCC2)C(=O)N[C@H](C(=O)N[C@H](CCC(=O)O)C(N)=O)CSCC(=O)N(C)[C@@H](CCC(=O)O)C(=O)N1C` [Peptide 5555_p026] ({CH2CO}-[NMeE][NMeNle][Aib][Cha][Phe(4-F)][dD]YY[Phe(4-COOH)][Ala(piperidin-4-yl)][Cha]C[dE]-NH2; thioether N-12) returned an Anti-SARS-CoV-2 activity in data set [1] of 2. Further, half-maximal inhibition in data set [2] (IC50) required 8.1 nM. For the compound `CCCC[C@H]1C(=O)NC(C)(C)C(=O)N[C@@H](CC2CCCCC2)C(=O)N[C@@H](Cc2ccc(F)cc2)C(=O)N(C)[C@@H](CCC(=O)O)C(=O)N[C@@H](Cc2ccc(O)cc2)C(=O)N[C@@H](Cc2ccc(O)cc2)C(=O)N[C@@H](Cc2ccc(C(=O)O)cc2)C(=O)N[C@H](CCCNC(=N)N)C(=O)N[C@@H](CC2CCCCC2)C(=O)N[C@H](C(=O)N[C@H](CCC(=O)O)C(N)=O)CSCC(=O)N(C)[C@@H](CCC(=O)O)C(=O)N1C` [Peptide 5555_p039] ({CH2CO}-[NMeE][NMeNle][Aib][Cha][Phe(4-F)][NMeE]YY[Phe(4-COOH)][dR][Cha]C[dE]-NH2; thioether N-12), the IC50 in data set [2] was found to be 7.4 nM. Moreover, the CC50 at 72 h in data set [3] was > 100000 nM. Taken in the same sequence, the figures for `CN1C(=O)CSC[C@@H](C(=O)N[C@H](CCC(=O)O)C(N)=O)NC(=O)[C@H](CC2CCCCC2)NC(=O)[C@H](CCCCN)NC(=O)[C@H](Cc2ccc(C(=O)O)cc2)NC(=O)[C@H](Cc2ccc(O)cc2)NC(=O)[C@H](Cc2ccc(O)cc2)NC(=O)[C@H](CCC(=O)O)N(C)C(=O)[C@H](Cc2ccc(F)cc2)NC(=O)[C@H](CC2CCCCC2)NC(=O)[C@H](CO)NC(=O)[C@H](Cc2ccccc2)N(C)C(=O)[C@@H]1CCC(=O)O` [Peptide 5555_p088] ({CH2CO}-[NMeE][NMeF]S[Cha][Phe(4-F)][NMeE]YY[Phe(4-COOH)]K[Cha]C[dE]-NH2; thioether N-12) were 11.4 nM and > 100000 nM. With `CN1C(=O)CSC[C@@H](C(=O)N[C@H](CCC(=O)O)C(N)=O)NC(=O)[C@H](CC2CCCCC2)NC(=O)[C@H](CCCCN)NC(=O)[C@H](CCCNC(N)=O)NC(=O)[C@H](Cc2ccc(O)cc2)NC(=O)[C@H](Cc2ccc(O)cc2)NC(=O)[C@H](CCC(=O)O)N(C)C(=O)[C@H](Cc2ccc(F)cc2)NC(=O)[C@H](CC2CCCCC2)NC(=O)[C@H](CO)NC(=O)[C@H](Cc2ccccc2)N(C)C(=O)[C@@H]1CCC(=O)O` [Peptide 5555_p092] ({CH2CO}-[NMeE][NMeF]S[Cha][Phe(4-F)][NMeE]YY[Cit]K[Cha]C[dE]-NH2; thioether N-12), the Anti-SARS-CoV-2 activity in data set [1] (VeroE6/TMPRSS2 cells, JPN/TY/WK-521 strain, 24 hours) amounted to 2. The compound also came in with a half-inhibitory concentration (IC50) in data set [2] of 4.1 nM. The CC50 at 72 h in data set [3] is > 100000 nM.

For the compound `CN1C(=O)CSC[C@@H](C(=O)N[C@H](CCC(=O)O)C(=O)O)NC(=O)[C@H](CC2CCCCC2)NC(=O)[C@H](CC2CCNCC2)NC(=O)[C@H](Cc2ccc(C(=O)O)cc2)NC(=O)[C@H](Cc2ccc(O)cc2)NC(=O)[C@H](Cc2ccc(O)cc2)NC(=O)[C@H](CCC(=O)O)N(C)C(=O)[C@H](Cc2ccc(F)cc2)NC(=O)[C@H](CC2CCCCC2)NC(=O)C(C)(C)NC(=O)[C@H](Cc2ccccc2)N(C)C(=O)[C@@H]1CCC(=O)O` [Peptide 5555_p119] ({CH2CO}-[NMeE][NMeF][Aib][Cha][Phe(4-F)][NMeE]YY[Phe(4-COOH)][Ala(piperidin-4-yl)][Cha]C[dE]-OH; thioether N-12), in data set [2], the half-maximal inhibitory concentration (IC50) worked out at 18.2 nM. Also, the CC50 at 72 h in data set [3] is > 100000 nM.

In the case of `CCCC[C@H]1C(=O)NC(C)(C)C(=O)N[C@@H](CC2CCCCC2)C(=O)N[C@@H](Cc2ccc(F)cc2)C(=O)NC2(CCN(CC(=O)O)CC2)C(=O)N[C@@H](Cc2ccc(O)cc2)C(=O)N[C@@H](Cc2ccc(O)cc2)C(=O)N[C@@H](Cc2ccc(C(=O)O)cc2)C(=O)N[C@@H](CC2CCNCC2)C(=O)N[C@@H](CC2CCCCC2)C(=O)N[C@H](C(=O)N[C@H](CCC(=O)O)C(N)=O)CSCC(=O)N(C)[C@@H](CCC(=O)O)C(=O)N1C` [Peptide 5555_p173] ({CH2CO}-[NMeE][NMeNle][Aib][Cha][Phe(4-F)][X3]YY[Phe(4-COOH)][Ala(piperidin-4-yl)][Cha]C[dE]-NH2; thioether N-12), in data set [4], the IC50 was 6.8 nM. Same read-out and setting: in the case of `CCCC[C@H]1C(=O)NC(C)(C)C(=O)N[C@@H](CC2CCCCC2)C(=O)N[C@@H](Cc2ccc(F)cc2)C(=O)N(C)[C@H](CCC(=O)O)C(=O)N[C@@H](Cc2ccc(O)cc2)C(=O)N[C@@H](Cc2ccc(O)cc2)C(=O)N[C@@H](Cc2ccc(C(=O)O)cc2)C(=O)N[C@@H](CC2CCNCC2)C(=O)N[C@@H](CC2CCCCC2)C(=O)N[C@H](C(=O)N[C@H](CCC(=O)O)C(N)=O)CSCC(=O)N(C)[C@@H](CCC(=O)O)C(=O)N1C` [Peptide 5555_p175] ({CH2CO}-[NMeE][NMeNle][Aib][Cha][Phe(4-F)][dNMeE]YY[Phe(4-COOH)][Ala(piperidin-4-yl)][Cha]C[dE]-NH2; thioether N-12) it was 34.5 nM. As to `CCCC[C@H]1C(=O)NC(C)(C)C(=O)N[C@@H](CC2CCCCC2)C(=O)N[C@@H](Cc2ccc(F)cc2)C(=O)N(C)[C@H](CC(=O)O)C(=O)N[C@@H](Cc2ccc(O)cc2)C(=O)N[C@@H](Cc2ccc(O)cc2)C(=O)N[C@@H](Cc2ccc(C(=O)O)cc2)C(=O)N[C@@H](CC2CCNCC2)C(=O)N[C@@H](CC2CCCCC2)C(=O)N[C@H](C(=O)N[C@H](CCC(=O)O)C(N)=O)CSCC(=O)N(C)[C@@H](CCC(=O)O)C(=O)N1C` [Peptide 5555_p176] ({CH2CO}-[NMeE][NMeNle][Aib][Cha][Phe(4-F)][dNMeD]YY[Phe(4-COOH)][Ala(piperidin-4-yl)][Cha]C[dE]-NH2; thioether N-12), the figures for the IC50 in data set [4] and in data set [5] were 13.6 nM and 13.7 nM, respectively. Taken in the same sequence, the figures for `CCCC[C@@H](C(=O)NC(C)(C)C(=O)N[C@@H](CC1CCCCC1)C(=O)N[C@@H](Cc1ccc(F)cc1)C(=O)N[C@H](CC(=O)O)C(N)=O)N(C)C(=O)[C@H](CCC(=O)O)N(C)C(=O)CSCC[C@H](NC(=O)[C@H](CC1CCCCC1)NC(=O)[C@@H](CCCCN)NC(=O)[C@H](CCCNC(N)=O)NC(=O)[C@H](Cc1ccc(O)cc1)NC(=O)[C@@H](C)Cc1ccc(O)cc1)C(=O)N[C@H](CCC(=O)O)C(=O)N[C@H](CCCCNC(=O)CCCCCCCCCCC(=O)O)C(N)=O` [Peptide 5555_p221] (I: X1-Y[Cit][dK][Cha][hCys][dE][dK](C12 diacid)-NH2 / II: [NMeE][NMeNle][Aib][Cha][Phe(4-F)][dD]-NH2; linker I:5-II:N via X2) were 17.7 nM and 18.6 nM. Consider `CCCC[C@H]1C(=O)NC(C)(C)C(=O)N[C@@H](CC2CCCCC2)C(=O)N[C@@H](Cc2ccc(F)cc2)C(=O)N[C@H](CC(=O)O)C(=O)N[C@@H](Cc2ccc(O)cc2)C(=O)N[C@@H](Cc2ccc(O)cc2)C(=O)N[C@@H](CCCNC(N)=O)C(=O)N[C@H](CCCCN)C(=O)N[C@@H](CC2CCCCC2)C(=O)N[C@H](C(=O)N[C@H](CCC(=O)O)C(=O)NCCCC[C@H](NC(=O)CC[C@H](NC(=O)CCCCCCCCCCC(=O)O)C(=O)O)C(=O)O)CSCC(=O)N(C)[C@@H](CCC(=O)O)C(=O)N1C` [Peptide 5555_p234] ({CH2CO}-[NMeE][NMeNle][Aib][Cha][Phe(4-F)][dD]YY[Cit][dK][Cha]C[dE]-X4; thioether N-12), for which inhibition in data set [5] was half-maximal at 42 nM (IC50).

On to `CCCC[C@H]1C(=O)NC(C)(C)C(=O)N[C@@H](CC2CCCCC2)C(=O)N[C@@H](Cc2ccc(F)cc2)C(=O)N[C@H](CC(=O)O)C(=O)N[C@@H](Cc2ccc(O)cc2)C(=O)N[C@@H](Cc2ccc(O)cc2)C(=O)N[C@@H](CCCNC(N)=O)C(=O)N[C@H](CCCCN)C(=O)N[C@@H](CC2CCCCC2)C(=O)N[C@H](C(=O)N[C@H](CCC(=O)O)C(=O)NCCCC[C@H](NC(=O)CC[C@H](NC(=O)CCCCCCCCCCCCC(=O)O)C(=O)O)C(=O)O)CSCC(=O)N(C)[C@@H](CCC(=O)O)C(=O)N1C` [Peptide 5555_p235] ({CH2CO}-[NMeE][NMeNle][Aib][Cha][Phe(4-F)][dD]YY[Cit][dK][Cha]C[dE]-X5; thioether N-12), for which, in data set [5], the 50% inhibitory concentration (IC50) is 57 nM.
